The values that follow come from patent US20260174761A1 (priority 2022, published 2026).

For data set [1] the following is noted: high concentrations (above 100 μM); cited from earlier work.
Data set [2] has as its system lipopolysaccharide (LPS)-induced microglial activation. Particulars: recent studies of the inventors; cited from earlier work.
For data set [3], the system named is human retinal pigment epithelium (RPE)-19 cell line. As to the kind of experiment: In vitro AMD model: RPE-19 cells stimulated with TNF-α and INF-γ (TI), secreted pro-inflammatory mediators. The conditions noted are these: RPE cells pretreated with compound, TNF-α and INF-γ stimulation. It is filed as cell-based. The source says:
TNF-α and INF-γ stimulation (TI).
Next, the effect of 2-CL-MGV-1 was examined in an in vitro model of age-related macular degeneration (AMD). Human retinal pigment epithelium (RPE)-19 cell line stimulated with TNF-α and INF-γ (TI) are known to mimic AMD by complement activation and increased levels of circulating cytokines.

Another data set deals with IBD mice. As to the kind of experiment: DSS-induced inflammatory bowel disease (IBD) mouse model: colon IL-6 by ELISA and colon length. It is filed as in vivo, C57BL6 mice. The conditions noted are these: for reduction of IL-6 levels within the colon: male mice, 2.5% DSS for 5 days, treatment from day 4 for four days, 2-CL-MGV-1 15 mg/kg, dexamethasone 0.75 mg/kg, vs DSS without treatment. As to the method: FIG. 1 includes a bar graph showing that interleukin (IL) 6 levels in the gut of IBD mice are reduced in response to 2-CL-MGV-1 treatment. Nine-weeks-old C57BL6 male mice were given 2.5% dextran sulfate sodium (DSS) in drinking water for 5 days. Naive mice were given water only. The treatments: 2-CL-MGV-1 and dexamethasone were given on day 4 for four days. […] ANOVA followed by Bonferroni's post-hoc test was performed. ***p<0.00001 compared to control.
FIG. 2 includes a bar graph showing that the treatment with 2-CL-MGV-1 reduces the shortening of IBD mice colon. Nine-weeks-old C57BL6 male mice were given 2.5% DSS in drinking water for 5 days. Naive mice were given water only. The treatments: 2-CL-MGV-1 and dexamethasone were given on day 4 for four days.
FIG. 4 includes a vertical bar graph showing that IL 6 levels in the gut of IBD mice are reduced in response to 2-CL-MGV-1 treatment. C57BL female mice aged of 8-10 weeks were given 2.5% DSS in their drinking water for 7 days. Vehicle group mice were given water only and DMSO injections on the 4th day for 4 days. DSS group received DSS with DMSO (as a vehicle) that were given on the 4th day for 4 days. The treatment group received 2-CL-MGV-1 (15 mg/kg) and DMSO as a vehicle were given on the 4th day for 4 days. […] ANOVA followed by Bonferroni's post-hoc test was performed. ***p<0.001 compared to control.
FIG. 5 includes a vertical bar graph showing that the treatment with 2-CL-MGV-1 reduces the shortening of IBD mice colon. C57BL female mice aged of 8-10 weeks were given 2.5% DSS in their drinking water for 7 days. Vehicle group mice were given water only and DMSO injections on the 4th day for 4 days. DSS group received DSS with DMSO (as a vehicle) that were given on the 4th day for 4 days. The treatment group received 2-CL-MGV-1 (15 mg/kg) and DMSO (as a vehicle) that were given on the 4th day for 4 days. […] ANOVA followed by Bonferroni's post-hoc test was performed. ***p<0.001 compared to control.
C57BL mice 8-10 weeks old were given 2.5% DSS in their drinking water for 7 days. On the fourth day, the mice were injected subcutaneously (S.C) with either DMSO or 2-CL-MGV-1 (30 μl) for four days. The mice were sacrificed on the eighth day of the experiment.
In the IBD experiment, 2-Cl-MGV-1 was injected subcutaneously for four days, three days after inflammation induction in the colon, using dextran sulfate sodium (DSS). On the following day, the mice were sacrificed, and the colon was removed. Colon lengths were measured, and cytokine levels were detected by ELISA.

Setting [4] is: female mice, 2.5% DSS for 7 days, 2-CL-MGV-1 15 mg/kg s.c. from 4th day for 4 days, vs DSS+vehicle (DMSO).

Turning to `CN(C)C(=O)Oc1nc(-c2ccccc2Cl)nc2ccccc12` [2-Cl-MGV-1, 2-chlorophenyl quinazolin-4-yl dimethylcarbamate], in data set [1], the lethal effects result is reported as “very few lethal effects”. The LPS-induced microglial activation result in data set [2] was “inhibit”. In data set [3], the “TI-induced secretion of IL-8” value was “significantly reduced”, the “TI-induced secretion of complement C3” value is “significantly reduced”, the “TI-induced secretion of complement C5” value was “significantly reduced” and the “TI-induced secretion of reactive oxygen species (ROS)” value is reported as “significantly reduced”. In the data set on IBD mice (setting [4]), the “decrease in IL-6 content in the colon” value came out at 64% and the “increase in colon length” value was 26%. For the same compound, the “colon shrinkage effect compared to dexamethasone” value with IBD mice (male DSS mice, 2-CL-MGV-1 15 mg/kg vs dexamethasone 0.75 mg/kg) is on record as “significantly more pronounced”. Further, the “colon shrinkage (shortening) effect” value with IBD mice (male and female DSS mice, 2-CL-MGV-1 15 mg/kg for four days) is “alleviated the colon shrinkage effect”. Also, the “reduction of IL-6 levels within the colon” value with IBD mice came to 75%. The “effect on IL-6 secretion relative to dexamethasone (DEX) treatment” value in the data set on IBD mice (murine IBD model, compared to DEX) was “about 75%”.

For `CCC(C)N(C)C(=O)c1cc2ccccc2c(-c2ccccc2Cl)n1` (centres unmarked) [PK 11195, reference compound], the lethal effects result in data set [1] is reported as “pronounced lethal effects”.

As for `C[C@@H]1C[C@H]2[C@@H]3CCC4=CC(=O)C=C[C@]4(C)[C@@]3(F)[C@@H](O)C[C@]2(C)[C@@]1(O)C(=O)CO` [dexamethasone, reference compound], the “reduction of IL-6 levels within the colon” value in the data set on IBD mice is 20%.
